The source of these data is patent publication US5763635A, “Tetrahydronaphthalene derivatives substituted in the 8 position with alkyhidene groups having retinoid and/or retinoid antagonist-like biological activity” (ALLERGAN, priority 1996, dated 1998).

For the assay, the system named is ornithine decarboxylase (ODC). In words: Inhibition of TPA induction of ornithine decarboxylase (ODC assay). Format: biochemical. The source says: A classic measure of retinoic acid activity involves measuring the effects of retinoic acid on ornithine decarboxylase. The original work on the correlation between retinoic acid and decrease in cell proliferation was done by Verma & Boutwell, Cancer Research, 1977, 37,2196-2201. That reference discloses that ornithine decarboxylase (ODC) activity increased precedent to polyamine biosynthesis. It has been established elsewhere that increases in polyamine synthesis can be correlated or associated with cellular proliferation. Thus, if ODC activity could be inhibited, cell hyperproliferation could be modulated. Although all cases for ODC activity increases are unknown, it is known that 12-O-tetradecanoylphorbol-13-acetate (TPA) induces ODC activity. Retinoic acid inhibits this induction of ODC activity by TPA. […] Activity of exemplary compounds of the present invention in the above-described ODC assay is disclosed in Table 1 which provides the IC60 concentration for the respective exemplary compound. ("IC60 " is that concentration of the test compound which causes 60% inhibition in the ODC assay. By analogy, "IC80, for example, is that concentration of the test compound which causes 80% inhibition in the ODC assay.)

On to `CC1(C)CC=C(c2cccs2)c2ccc(C(=O)C=Cc3ccc(C(=O)O)cc3)cc21` [Compound D34, 4-[3-oxo-3-(7,8-dihydro-5-(2-thienyl)-8,8-dimethyl-2-naphthalenyl)-1-propenyl]-benzoic acid], for which, under “concentration causing 80% inhibition in the ODC assay (TPA-induced), marked (IC80) in the IC60 column”, the IC80 came to 4.3 nmols.

`CCOC(=O)c1ccc(N=Nc2ccc3c(c2)/C(=N/OC)CCC3(C)C)cc1` [Compound D3, Ethyl 4-[(8(7H)-anti-(O-methyl oxime)-5,5-dimethyl-5,6-dihydronaphthalen-2-yl)azo]benzoate] had an IC60 (concentration causing 60% inhibition in the ODC assay (TPA-induced)) of 8.4 nmols.
